This note sets out measurements from patent US12384753B2, “17-beta-hydroxysteroid dehydrogenase type 13 inhibitors and methods of use thereof” (Enanta Pharmaceuticals, Inc., priority 2021, dated 2025).

The term IC50 denotes the concentration that inhibits the measured activity by half.

Recombinant human HSD17B13, sequence (Q7Z5P4 20-300): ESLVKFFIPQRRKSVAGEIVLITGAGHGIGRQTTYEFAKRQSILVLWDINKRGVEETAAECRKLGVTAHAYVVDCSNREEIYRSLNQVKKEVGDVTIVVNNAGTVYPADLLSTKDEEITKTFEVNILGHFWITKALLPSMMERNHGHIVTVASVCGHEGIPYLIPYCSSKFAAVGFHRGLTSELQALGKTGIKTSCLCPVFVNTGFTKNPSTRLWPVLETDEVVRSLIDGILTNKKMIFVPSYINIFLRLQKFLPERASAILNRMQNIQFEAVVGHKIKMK

In this test the target is Recombinant human HSD17B13 (Homo sapiens (Human), UniProt Q7Z5P4). The test can be described thus: HSD17B13 rapid-fire mass spectrometry assay (RF/MS assay). Conditions: inhibition of HSD17B13; LTB4 10 μM, NAD+ 0.5 mM, RT 3 h; IC50 ranges A-E. Format: biochemical. The gist of the method:
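Product 12-oxo-LTB4 and substrate LTB4 quantified by RapidFire triple-quad MS in negative mode, giving percent conversion. Reaction: 80 nM recombinant hHSD17B13, 10 μM LTB4, 0.5 mM NAD+, compound up to 100 μM, pH 7.5, RT, 3 h. Variable-slope fit gave IC50; run in duplicate.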
Regarding `COc1cc(C(=O)O)ccc1NS(=O)(=O)c1csc(C#Cc2ccc(C#N)c(OC(F)(F)F)c2)n1` [Example 397], the IC50 was under 100 nM.

Regarding `COC(=O)c1ccc(C#Cc2nc(S(=O)(=O)Nc3ccc(C(=O)O)cc3OC)cs2)cc1OC(F)(F)F` [Example 398], the half-inhibitory concentration (IC50) was under 100 nM. The value for `COc1ccc(C#Cc2nc(S(=O)(=O)Nc3ccc(C(=O)O)cc3OC)cs2)c(C(C)C)c1` [Example 399, 4-((2-((2-isopropyl-4-methoxyphenyl)ethynyl)thiazole)-4-sulfonamido)-3-methoxybenzoic acid] was under 100 nM; that for `CCOP(=O)(O)c1ccc(NS(=O)(=O)c2csc(C#Cc3cccc(OC(F)(F)F)c3)n2)c(OC)c1` [Example 400, ethyl hydrogen (3-methoxy-4-((2-((3-(trifluoromethoxy)phenyl)ethynyl)thiazole)-4-sulfonamido)phenyl)phosphonate] was 1000 to 100000 nM; that for `COc1cc(CC(=O)O)ccc1NS(=O)(=O)c1csc(C#Cc2cccc(OC(F)(F)F)c2)n1` [Example 401, 2-(3-methoxy-4-((2-((3-(trifluoromethoxy)phenyl)ethynyl)thiazole)-4-sulfonamido)phenyl)acetic acid] was 1000 to 100000 nM. With `COc1ccc(OC(F)(F)F)cc1C#Cc1nc(S(=O)(=O)Nc2ccc(C(=O)O)cc2OC)cs1` [Example 402] the figure was 100 to 500 nM; with `COc1cc(C(=O)O)ccc1NS(=O)(=O)c1csc(-c2cccc3cnn(C)c23)n1` [Example 403, 3-methoxy-4-((2-(1-methyl-1H-indazol-7-yl)thiazole)-4-sulfonamido)benzoic acid], 500 to 1000 nM. For the compound `COc1cc(C(=O)O)ccc1NS(=O)(=O)c1csc(-c2ccc(-c3ccc4ccccc4c3)cc2)n1` [Example 404], the half-maximal inhibitory concentration (IC50) was under 100 nM. The value for `COc1cc(C(=O)O)ccc1NS(=O)(=O)c1csc(-c2ccc3cnccc3c2)n1` [Example 405] was 100 to 500 nM. The value for `C=C(COC)c1ccc(-c2nc(S(=O)(=O)Nc3ccc(C(=O)O)cc3OC)cs2)cc1` [Example 406, 3-methoxy-4-((2-(4-(3-methoxyprop-1-en-2-yl)phenyl)thiazole)-4-sulfonamido)benzoic acid] was 100 to 500 nM; that for `COc1cc(C(=O)O)ccc1NS(=O)(=O)c1cccc(-c2ccc(F)cc2)n1` [Example 411, 4-((6-(4-fluorophenyl)pyridine)-2-sulfonamido)-3-methoxybenzoic acid] was 500 to 1000 nM; that for `COc1cc(C(=O)O)ccc1NS(=O)(=O)c1cccc(-c2ccc(C3CCCCC3)cc2)n1` [Example 412] was 100 to 500 nM. Regarding `COc1cc(C(=O)O)ccc1NS(=O)(=O)c1coc(-c2ccc(C)cc2)n1` [Example 413], the 50% inhibitory concentration (IC50) was under 100 nM. With `COc1cc(C(=O)O)ccc1NS(=O)(=O)c1coc(-c2ccc(C(F)(F)F)cc2)n1` [Example 414] the figure was under 100 nM. On to `COc1ccc(-c2nc(S(=O)(=O)Nc3ccc(C(=O)O)cc3OC)co2)cc1` [Example 415], for which the concentration for half-maximal inhibition (IC50) is under 100 nM. Take `COc1cc(C(=O)O)ccc1NS(=O)(=O)c1coc(-c2ccc(OC(F)(F)F)cc2)n1` [Example 416]: the IC50 is under 100 nM. With `COc1cc(C(=O)O)ccc1NS(=O)(=O)c1coc(-c2ccc(C3CCCCC3)cc2)n1` [Example 419] the figure was 100 to 500 nM; with `COc1cc(C(=O)O)ccc1NS(=O)(=O)c1coc(-c2ccc(C3CCC(C)(C)CC3)cc2)n1` [Example 420], 100 to 500 nM; with `COc1cc(C(=O)O)ccc1NS(=O)(=O)c1csc(-c2ccc(C3CCCC(OC)C3)cc2)n1` (centres unmarked) [Example 426, 3-methoxy-4-((2-(4-(3-methoxycyclohexyl)phenyl)thiazole)-4-sulfonamido)benzoic acid], 100 to 500 nM. The value for `COc1cc(C(=O)O)ccc1NS(=O)(=O)c1cnc(-c2ccc(-c3ccc4c(c3)CCCC4)cc2)s1` [Example 427] was 100 to 500 nM; that for `COc1cc(C(=O)O)ccc1NS(=O)(=O)c1ccc(-c2ccc(C3CCC(C)(C)CC3)cc2)s1` [Example 428, 4-((5-(4-(4,4-dimethylcyclohexyl)phenyl)thiophene)-2-sulfonamido)-3-methoxybenzoic acid] was 100 to 500 nM.

In the case of `COc1cc(C(=O)O)ccc1NS(=O)(=O)c1ccc(-c2ccc(C3=CCC(C)(C)CC3)cc2)s1` [Example 429, 4-((5-(4′,4′-dimethyl-2′,3′,4′,5′-tetrahydro-[1,1′-biphenyl]-4-yl)thiophene)-2-sulfonamido)-3-methoxybenzoic acid], the half-maximal inhibitory concentration (IC50) lay in the range of 100 to 500 nM. The value for `COc1cc(C(=O)O)ccc1NS(=O)(=O)c1ccc(-c2ccc(C3(O)CCC(C)(C)CC3)cc2)s1` [Example 430, 4-((5-(4-(1-hydroxy-4,4-dimethylcyclohexyl)phenyl)thiophene)-2-sulfonamido)-3-methoxybenzoic acid] was 100 to 500 nM; that for `COc1cc(C(=O)O)ccc1NS(=O)(=O)c1cncc(-c2ccc(C3CCCCC3)cc2)c1` [Example 433, 4-((5-(4-cyclohexylphenyl)pyridine)-3-sulfonamido)-3-methoxybenzoic acid] was 500 to 1000 nM. With `COc1cc(C(=O)O)ccc1NS(=O)(=O)c1cncc(C#Cc2cccc(OC(F)(F)F)c2)c1` [Example 434, 3-methoxy-4-((5-((3-(trifluoromethoxy)phenyl)ethynyl)pyridine)-3-sulfonamido)benzoic acid] the figure was 500 to 1000 nM; with `COc1cc(C(=O)O)ccc1NS(=O)(=O)c1cc(-c2ccc(C3CCCCC3)cc2)ccc1F` [Example 435], 500 to 1000 nM; with `COc1cc(C(=O)O)ccc1NS(=O)(=O)c1cccc(-c2ccc(C3CCCCC3)cc2)c1F` [Example 436], under 100 nM.

With `COc1cc(C(=O)O)ccc1NS(=O)(=O)c1ccc(F)c(-c2ccc(C3CCCCC3)cc2)c1` [Example 437], the IC50 lay within 100 to 500 nM. In the case of `COc1cc(C(=O)O)ccc1NS(=O)(=O)c1cc(F)cc(-c2ccc(C3CCCCC3)cc2)c1` [Example 438], the IC50 was under 100 nM. Turning to `COC/C=C/c1ccc(-c2ncc(S(=O)(=O)Nc3ccc(C(=O)O)cc3OC)s2)cc1` [Example 449, (E)-3-methoxy-4-((2-(4-(3-methoxyprop-1-en-1-yl)phenyl)thiazole)-5-sulfonamido)benzoic acid], the 50% inhibitory concentration (IC50) was 100 to 500 nM. The value for `C=C(c1ccc(-c2ncc(S(=O)(=O)Nc3ccc(C(=O)O)cc3OC)s2)cc1)C1CC1` [Example 450] was under 100 nM. With `COc1cc(C(=O)O)ccc1NS(=O)(=O)c1cnc(-c2ccc(C3=CCC(c4ccccc4)CC3)cc2)s1` (centres unmarked) [Example 451, 3-methoxy-4-((2-(2′,3′,4′,5′-tetrahydro-[1,1′:4′,1″-terphenyl]-4-yl)thiazole)-5-sulfonamido)benzoic acid] the figure was 100 to 500 nM; with `COc1cc(C(=O)O)ccc1NS(=O)(=O)c1cnc(-c2ccc(C3CCC(c4ccccc4)CC3)cc2)s1` (centres unmarked) [Example 452, 3-methoxy-4-((2-(4-(4-phenylcyclohexyl)phenyl)thiazole)-5-sulfonamido)benzoic acid], 100 to 500 nM; with `COc1cc(C(=O)O)ccc1NS(=O)(=O)c1cnc(-c2ccc(C3CCC(C)(C)CC3)cc2)s1` [Example 453], 100 to 500 nM.

Consider `COc1cc(C(=O)O)ccc1NS(=O)(=O)c1csc(C2=CCC(C)(C)CC2)n1` [Example 454, 4-((2-(4,4-dimethylcyclohex-1-en-1-yl)thiazole)-4-sulfonamido)-3-methoxybenzoic acid], for which the half-inhibitory concentration (IC50) was in the range of 100 to 500 nM.
